A word on the half-life: it is how long it takes for the measured level to halve. Higher therefore signals slow decline.

This is an account of results in PMC3580045 (Journal of pharmacy & pharmaceutical sciences : a …, 2012).

Where two headings read alike, the source gives them in different places. Marks after values point to notes of the source that are not given here.

Data set [1] in a line: Hydrolysis in Caco-2 cell homogenate. It counts as in vitro ADME, human. Particulars: for Half-lives, Caco-2 Cell Homogenate: pH 7.4 phosphate buffer, 37°C, mean ± SD, n = 3, NA = no significant degradation.
A short description of data set [2]: Hydrolysis in human non-tumor liver tissue homogenate. It counts as in vitro ADME. Conditions: for Half-lives, Human non-Tumor Liver Tissue Homogenate: mean ± SD, n = 3, NA = no significant degradation.
The conditions of data set [3]: pH 7.4 phosphate buffer, 37°C; mean ± SD; cited from earlier work.
The conditions of data set [4]: mean ± SD; cited from earlier work.
The conditions of data set [5]: mean ± SD; cited from earlier work. The source holds these as a separate data set.
Data set [6] can be described thus: Stability in human liver microsomes. Conditions: for Half-lives, Human Liver Microsomes: mean ± SD, n = 3, NA = no significant degradation.
Data set [7] is described as follows: Hydrolysis in human tumor liver tissue homogenate. Type of data set: in vitro ADME. Particulars: mean ± SD, n = 3; NA = no significant degradation.
Data set [8] can be described thus: Hydrolysis in human small intestinal. It counts as in vitro ADME.
Data set [9] in a line: Hydrolysis in Capan-2 cell homogenate. It counts as in vitro ADME, human.
Data set [10] can be described thus: Hydrolysis in AsPC-1 cell homogenate. Type of data set: in vitro ADME. Particulars: human, pH 7.4.
Data set [11] can be described thus: Hydrolysis in human pancreas. Type of data set: in vitro ADME. Particulars: human pancreas tissue homogenate.
The conditions of data set [12]: reported by several groups; cited from earlier work.
For data set [13] the following is noted: phosphate buffer.

As for `N[C@@H](Cc1ccccc1)C(=O)OC[C@H]1O[C@@H](n2cc(F)c(=O)[nH]c2=O)C[C@@H]1O` [5′-O-L-phenylalanyl-floxuridine], the “Half-lives, Caco-2 Cell Homogenate” value in [1] was determined as 12.2 ± 0.1 min. For the same compound, the “Half-lives, Human non-Tumor Liver Tissue Homogenate” value in [2] was 3.2 ± 1.2 min. In addition, in data set [3], the “Half-lives, Buffer pH 7.4” value is 187.0 ± 19.0 ^b min. In addition, in data set [4], the “Half-lives, AsPC-1 Cell Homogenate” value is listed as 11.8 ± 1.7 ^b min. In data set [5], the “Half-lives, Capan-2 Cell Homogenate” value was 3.0 ± 0.1 ^b min. Further, in [6], the “Half-lives, Human Liver Microsomes” value turned out to be 1.3 ± 0.4 min.

On to `CC(C)[C@H](N)C(=O)N[C@@H](Cc1ccccc1)C(=O)OC[C@H]1O[C@@H](n2cc(F)c(=O)[nH]c2=O)C[C@@H]1O` [5′-O-L-valyl-L-phenylalanyl-floxuridine], for which the “Half-lives, Caco-2 Cell Homogenate” value in data set [1] was 57.6 ± 9.3 min. In data set [2], the “Half-lives, Human non-Tumor Liver Tissue Homogenate” value worked out at 2.2 ± 0.0 min. Also, the “Half-lives, Human Tumor Liver Tissue Homogenate” value in data set [7] is given as under 0.2 min ^* ^∞. The “Half-lives, Buffer pH 7.4” value in data set [3] is reported as 104.7 ± 7.0 ^b min. The “Half-lives, AsPC-1 Cell Homogenate” value in [4] was 51.6 ± 4.2 ^b min. The “Half-lives, Capan-2 Cell Homogenate” value in data set [5] was 56.2 ± 12.8 ^b min. Further, the “Half-lives, Human Liver Microsomes” value in [6] was found to be 24.7 ± 2.4 min.

Take `CC(C)[C@H](N)C(=O)OC[C@H]1O[C@@H](n2cc(F)c(=O)[nH]c2=O)C[C@@H]1O` [5′-O-L-valyl-floxuridine]: the “Half-lives, Caco-2 Cell Homogenate” value in [1] turned out to be 13.7 ± 2.0 min. In [2], the “Half-lives, Human non-Tumor Liver Tissue Homogenate” value is 2.0 ± 0.3 min. In addition, the “Half-lives, Human Tumor Liver Tissue Homogenate” value in data set [7] was 3.5 ± 0.2 ^∞ min. Also, the “Half-lives, Buffer pH 7.4” value in data set [3] is 304.0 ± 33.3 ^b min. Besides, the “Half-lives, AsPC-1 Cell Homogenate” value in [4] is on record as 18.7 ± 6.7 ^b min. In addition, the “Half-lives, Capan-2 Cell Homogenate” value in data set [5] is on record as 5.2 ± 2.4 ^b min. In data set [6], the “Half-lives, Human Liver Microsomes” value is given as 2.9 ± 0.1 min.

Regarding `CC[C@H](C)[C@H](N)C(=O)OC[C@H]1O[C@@H](n2cc(F)c(=O)[nH]c2=O)C[C@@H]1O` [5′-O-L-isoleucyl-floxuridine], the “Half-lives, Caco-2 Cell Homogenate” value in data set [1] was determined as 131.6 ± 48.4 min. The “Half-lives, Human non-Tumor Liver Tissue Homogenate” value in [2] is recorded as 5.2 ± 0.1 min. The “Half-lives, Human Tumor Liver Tissue Homogenate” value in data set [7] is reported as under 0.2 min ^∞. Moreover, the “Half-lives, Buffer pH 7.4” value in data set [3] was 323.5 ± 1.5 ^a min. Besides, the “Half-lives, AsPC-1 Cell Homogenate” value in data set [4] was 198.0 ± 70.2 ^b min. Besides, in data set [5], the “Half-lives, Capan-2 Cell Homogenate” value is given as 139.9 ± 15.3 ^b min. In data set [6], the “Half-lives, Human Liver Microsomes” value was 19.4 ± 7.8 min.

For the compound `CC(C)C[C@H](N)C(=O)OC[C@H]1O[C@@H](n2cc(F)c(=O)[nH]c2=O)C[C@@H]1O` [5′-O-L-leucyl-floxuridine], the “Half-lives, Caco-2 Cell Homogenate” value in [1] came out at 3.3 ± 0.9 min. Besides, the “Half-lives, Human non-Tumor Liver Tissue Homogenate” value in [2] is listed as under 0.2 min. Also, in data set [3], the “Half-lives, Buffer pH 7.4” value is on record as 83.2 ± 1.7 ^b min. In [4], the “Half-lives, AsPC-1 Cell Homogenate” value is 2.0 ± 0.1 ^a min. Moreover, in data set [5], the “Half-lives, Capan-2 Cell Homogenate” value is listed as 4.7 ± 2.1 ^b min. Besides, the “Half-lives, Human Liver Microsomes” value in data set [6] is 0.8 ± 0.1 min.

Regarding `CC(C)[C@@H](N)C(=O)OC[C@H]1O[C@@H](n2cc(F)c(=O)[nH]c2=O)C[C@@H]1O` [5′-O-D-valyl-floxuridine], the entries for the “fold more stable than 5′-O-L-valyl-floxuridine” value in data set [1] (Caco-2 homogenate) and in [8] (human intestinal tissue homogenate) were 16.1 fold and 11.3 fold, respectively. Also, in data set [1], the “Half-lives, Caco-2 Cell Homogenate” value is recorded as 220.4 ± 64.0 min. Moreover, the “fold better stability than 5′-O-L-valyl-floxuridine” value in data set [2] (human liver tissue homogenates (non-tumor and tumor)) is 3- to 10 fold; in [6] (human liver microsomes) it was 243 fold. Further, the “Half-lives, Human non-Tumor Liver Tissue Homogenate” value in data set [2] was found to be 19.0 ± 0.2 min. Besides, the “Half-lives, Human Tumor Liver Tissue Homogenate” value in [7] is recorded as 9.4 ± 0.5 ^∞ min. For the same compound, the “Half-lives, Capan-2 Cell Homogenate” value in data set [9] (mean ± SD, n = 3, NA = no significant degradation) stood at 188.3 ± 12.1 min. The “Half-lives, Buffer pH 7.4” value in data set [3] is 344.9 ± 10.2 ^a min. The “Half-lives, AsPC-1 Cell Homogenate” value in data set [4] is 290.9 ± 48.9 ^a min. In addition, the “Half-lives, Human Liver Microsomes” value in data set [6] is 705.9 ± 64.2 min. For the same compound, in data set [6] (microsomes vs liver tissue homogenates), the “fold more stable in human liver microsomes than in human liver tissue homogenates” value was “at least 37 fold”.

For the compound `O=c1[nH]c(=O)n([C@H]2C[C@H](O)[C@@H](CO)O2)cc1F` [Floxuridine, 5-fluoro-2′-deoxyuridine, reference compound], the half-life in [1] (human, Caco-2, pH 7.4) amounted to 14.3 ± 7 min; in [8] (human, pH 7.4), 14 ± 4 min; in data set [2] (human, human non-tumor liver tissue homogenate, pH 7.4), 5 ± 2.4 min; in data set [10], 6.4 ± 3.2 min; in data set [9] (human, Capan-2 cell homogenate, pH 7.4), 17.8 ± 5.8 min; in data set [11] (human, non-tumor, pH 7.4), 209 ± 19.4 min. Moreover, in [6] (human, human liver microsomes), the half-life was under 0.2 min. Besides, in [11], the “stability (in words)” value is “good stability”. The “fold higher potency than 5-FU” value in data set [12] was 10- to 100 fold.

Turning to `N[C@@H](Cc1ccccc1)C(=O)NCC(=O)OC[C@H]1O[C@@H](n2cc(F)c(=O)[nH]c2=O)C[C@@H]1O` [5′-O-L-phenylalanyl-L-glycyl-floxuridine], the “Half-lives, Caco-2 Cell Homogenate” value in [1] is recorded as 2.9 ± 0.5 min. The “Half-lives, Human non-Tumor Liver Tissue Homogenate” value in [2] was 3.2 ± 0.3 min. The “Half-lives, Buffer pH 7.4” value in data set [3] is on record as 132.1 ± 10.2 ^b min. In addition, the “Half-lives, AsPC-1 Cell Homogenate” value in [4] is listed as 10.2 ± 0.3 ^b min. Moreover, the “Half-lives, Capan-2 Cell Homogenate” value in data set [5] is 4.3 ± 0.9 ^b min. In addition, in data set [6], the “Half-lives, Human Liver Microsomes” value amounted to 15.9 ± 1.9 min.

As for `O=C(O[C@H]1C[C@H](n2cc(F)c(=O)[nH]c2=O)O[C@@H]1CO)[C@@H]1CCCN1` [Floxuridine-3′-L-proline], the “stability (in words)” value in data set [1] (Caco-2 cell homogenate), in [8] (human small bowel tissue homogenate) and in [13] was “stable” throughout. Further, the “degradation (in words)” value in data set [2] (human liver tissue homogenate, over 2 hr) was “no significant degradation”; in data set [6] (human liver microsomes, over 2 hr) it was “no significant degradation”.

For `N[C@@H](Cc1ccccc1)C(=O)N[C@@H](Cc1ccc(O)cc1)C(=O)OC[C@H]1O[C@@H](n2cc(F)c(=O)[nH]c2=O)C[C@@H]1O` [5′-O-L-phenylalanyl-L-tyrosyl-floxuridine], in [1], the “Half-lives, Caco-2 Cell Homogenate” value came to 115.2 ± 54.2 min. For the same compound, the “Half-lives, Human non-Tumor Liver Tissue Homogenate” value in [2] is reported as 358.3 ± 20.3 min. Moreover, the “Half-lives, Human Tumor Liver Tissue Homogenate” value in [7] came to 241.4 ± 5.1 min. For the same compound, the “Half-lives, Buffer pH 7.4” value in data set [3] is on record as 233.9 ± 6.6 ^b min. In [4], the “Half-lives, AsPC-1 Cell Homogenate” value is 59.7 ± 1.4 ^b min. The “Half-lives, Capan-2 Cell Homogenate” value in data set [5] is 42.8 ± 0.0 ^b min. In [6], the “Half-lives, Human Liver Microsomes” value amounted to 253.0 ± 36.2 min.
